Tested on: synaptic responses between Schaffer collaterals and dendrites in the CA1 region
Assay: Long-term potentiation in hippocampal slices of magnesium-deficient rats (restoration of synaptic plasticity)
Assay type: ex vivo, rat
Protocol: [Comparative experiments were conducted on rats to measure the efficiency of synaptic transmission and synaptic plasticity, in particular in order to measure the recovery of synaptic plasticity.
Three groups of rats were made up as follows:
Group 1: control rats on a normal diet;
Group 2: magnesium-deficient rats on a low-magnesium diet;
Group 3: magnesium-deficient rats supplemented with a composition according to the invention containing magnesium N-acetyl taurinate dihydrate containing two intrinsic water molecules (ATAMg dihydrate) at a dose of […] magnesium N-acetyl taurinate dihydrate containing two intrinsic water molecules (in the water). Supplementation was started 40 days after the beginning of the low-magnesium diet and was carried on for 24 days.
The hippocampi of the rats from each group were dissected to measure synaptic plasticity. In particular, synaptic responses were measured between Schaffer collaterals and dendrites in the CA1 region. A baseline was recorded for 30 minutes corresponding to a synaptic response of 40% of the peak response. Then the long-term plasticity process was induced by applying four 100 Hz trains at 5-minute intervals. The increased response was measured over four hours. For every experiment, a control pathway without any high-frequency stimulation was also measured.

## CC(=O)NCCS(=O)(=O)[O-].CC(=O)NCCS(=O)(=O)[O-].O.O.[Mg+2] [magnesium N-acetyl taurinate dihydrate]
Group 3: magnesium-deficient rats supplemented in the water at 50 mg/kg/hour (50 mg/kg/day) for 24 days, four 100 Hz trains, response measured over four hours, FIG. 3
  long-term potentiation: over 300%
Group 3: magnesium-deficient rats supplemented in the water for 24 days, control pathway without high-frequency stimulation, FIG. 3
  control pathway / baseline stability: stabilisation of the baseline
Comparison of Group 3 (supplemented) with Group 2 (magnesium-deficient rats)
  recovery/restoration of synaptic plasticity: induces the recovery/restoration of synaptic plasticity

Reference: patent publication US20220008455A1, “Compound and Composition for Use in the Preventive and/or Curative Treatment of Diseases of the Central Nervous System Characterised by a Decline in Neuronal Plasticity, in Particular Characterised by a Decline in Synaptic Plasticity” (SYNAPHARM INDUSTRIAL SYNTHESIS, priority 2017, published 2022)
